Non-standard residues stand in square brackets, D forms with d. Residues, ends and D or L forms follow the SMILES beside them. ξ: configuration not given here. *: point of attachment. Sta = CC(C)C[C@H](N)[C@@H](O)CC(=O)O; X1 = CC(=O)c1cn(*)c2ccccc12; Isovaleryl = CC(C)CC(=O)*; ξIva = CCC(C)(N)C(=O)O
Tests used:
[1] = target: Cathepsin B (Homo sapiens) (UniProt P07858); experiment: Inhibitory activity against cysteine protease cathepsin B
[2] = target: Procathepsin L (Homo sapiens) (UniProt P07711); experiment: Inhibitory activity against cysteine protease cathepsin L
Sequence of Procathepsin L (Homo sapiens) (P07711 114-333 limits assumed): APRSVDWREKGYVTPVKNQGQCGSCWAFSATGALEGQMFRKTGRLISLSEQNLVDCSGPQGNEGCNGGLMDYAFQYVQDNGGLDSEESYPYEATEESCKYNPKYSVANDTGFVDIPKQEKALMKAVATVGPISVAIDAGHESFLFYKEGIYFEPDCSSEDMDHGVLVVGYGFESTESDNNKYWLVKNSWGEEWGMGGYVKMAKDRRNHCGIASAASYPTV

[3] = target: Pepsin A (Sus scrofa) (UniProt P00791); experiment: (§1) Inhibitory activity against aspartyl protease pepsin
Sequence of Pepsin A (Sus scrofa) (P00791 60-385 limits assumed): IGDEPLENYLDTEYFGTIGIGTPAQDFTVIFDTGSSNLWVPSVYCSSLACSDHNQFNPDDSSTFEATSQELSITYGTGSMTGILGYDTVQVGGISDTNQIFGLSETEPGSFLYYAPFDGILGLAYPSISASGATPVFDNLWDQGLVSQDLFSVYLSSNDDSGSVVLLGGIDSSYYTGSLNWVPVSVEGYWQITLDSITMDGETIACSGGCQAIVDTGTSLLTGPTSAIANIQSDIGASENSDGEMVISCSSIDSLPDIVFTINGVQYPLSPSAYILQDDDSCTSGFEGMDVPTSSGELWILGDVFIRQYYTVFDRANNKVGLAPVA

[4] = target: Serine protease 1 (Homo sapiens) (UniProt P07477); experiment: Inhibitory activity against serine protease trypsin
Sequence of Serine protease 1 (Homo sapiens) (P07477 whole entry): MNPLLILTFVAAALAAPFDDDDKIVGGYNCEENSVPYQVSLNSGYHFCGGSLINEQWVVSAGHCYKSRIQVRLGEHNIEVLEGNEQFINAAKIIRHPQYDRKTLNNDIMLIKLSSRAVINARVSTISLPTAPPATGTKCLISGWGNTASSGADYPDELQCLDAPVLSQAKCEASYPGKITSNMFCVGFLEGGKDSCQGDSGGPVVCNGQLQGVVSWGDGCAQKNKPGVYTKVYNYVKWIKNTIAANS

[5] = target: Pepsin A (Sus scrofa, UniProt P00791); experiment: as §1
Sequence of Pepsin A (P00791 whole entry): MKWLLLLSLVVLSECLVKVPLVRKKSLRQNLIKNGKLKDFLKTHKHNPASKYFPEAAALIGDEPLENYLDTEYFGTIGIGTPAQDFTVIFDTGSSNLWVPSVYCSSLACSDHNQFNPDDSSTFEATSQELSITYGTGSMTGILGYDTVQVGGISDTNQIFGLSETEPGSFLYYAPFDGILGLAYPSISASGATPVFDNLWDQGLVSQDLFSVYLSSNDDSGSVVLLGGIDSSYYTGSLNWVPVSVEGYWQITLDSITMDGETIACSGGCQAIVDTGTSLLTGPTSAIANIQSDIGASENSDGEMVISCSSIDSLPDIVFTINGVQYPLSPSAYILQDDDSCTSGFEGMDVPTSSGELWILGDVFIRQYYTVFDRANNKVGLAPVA

[6] = target: Cathepsin B (Homo sapiens) (UniProt P07858); experiment: Second order rate constant for cathepsin B
[7] = target: Procathepsin L (Homo sapiens) (UniProt P07711); experiment: Second order rate constant for cathepsin L

SMILES: CC[C@H](NC(=O)C[C@H](O)[C@H](CC(C)C)NC(=O)[C@H](CC(C)C)NC(=O)[C@@H]1N[C@H]1C(=O)O)C(=O)N[C@H](/C=C/C(=O)O)CCCN=C(N)N [MIRAZIRIDINE A]
- Affinity [1]: 15000 M⁻¹ s⁻¹
- Affinity [2]: 1e+06 M⁻¹ s⁻¹
- Affinity [3]: 14 nM
- Affinity [4]: 60 µM
- Ki [5]: 14 nM

SMILES: CCC(C)(N)C(=O)N[C@H](C(=O)N[C@@H](CC(C)C)[C@@H](O)CC(=O)N[C@@H](C)C(=O)n1cc(C(C)=O)c2ccccc21)C(C)C (some centres undefined) (H-[ξIva]V[Sta]A-X1)
- Ki [5]: 3 nM

SMILES: CC(C)CCNC(=O)[C@H](CC(C)C)NC(=O)[C@@H]1N[C@H]1C(=O)O
- k2/Ki [6]: 17000 M⁻¹ s⁻¹
- k2/Ki [7]: 120000 M⁻¹ s⁻¹

SMILES: CC(C)CC(=O)N[C@H](C(=O)N[C@H](C(=O)N[C@@H](CC(C)C)[C@@H](O)CC(=O)N[C@@H](C)C(=O)N[C@@H](CC(C)C)[C@@H](O)CC(=O)O)C(C)C)C(C)C (Isovaleryl-VV[Sta]A[Sta]-OH)
- Ki [5]: 0.046 nM

Reference: ChEMBL document CHEMBL1137960, “Miraziridine A: natures blueprint towards protease class-spanning inhibitors” (Bioorg Med Chem Lett, 2004)
